Measured values as given in a compilation of properties of binary mixtures (doi:10.1021/acs.jced.0c00618).

Test: xn = mol fraction of the nth substance listed
Conditions: 101 kPa, x2 = 0.3209

CCCC[n+]1ccn(C)c1.O=S(=O)([O-])C(F)(F)F + NCCO
Conditions	speed of sound [m/s]	viscosity [mPa·s]
298.15 K	1428.8	41.99
303.15 K	1417	34.4
308.15 K	1405.2	28.38
313.15 K	1393.2	23.76
318.15 K	1382.1	20.13
323.15 K	1370.6	17.25
328.15 K	1359.2	14.94
333.15 K	1348	13.05
